# Results published in US6180615A, “Propargyl phenyl ether A2A receptor agonists” (CV Therapeutics, Inc., priority 1999, dated 2001).
# Target: T1, A2A receptor (Sus scrofa, UniProt K9IW67)
# T1 construct: from tissue; host or cells: pig striatum membranes
# Assay: affinity for the A2A receptor in a pig striatum membrane prep (displacement of tritiated antagonist ZM 241385)
# Assay type: binding
# Conditions: pig striatal membranes, adenosine deaminase, 50 mM Tris pH 7.4, 2 nM tritiated ZM 241385, 23° C. for 2 h
# Protocol: Compositions of this invention were assayed to determine their affinity for the A2A receptor in a pig striatum membrane prep. 0.2 mg of pig striatal membranes were treated with adenosine deaminase and 50 mM Tris buffer (pH=7.4) followed by mixing. To the pig membranes was added 2 μL of serially diluted DMSO stock solution of the compounds of this invention at concentrations ranging from 100 μM to 10 nM or the control received 2 μL of DMSO alone, then the tritiated antagonist ZM 241385 in Tris buffer (50 mM, pH of 7.4) was added to achieve a final concentration of 2 nM . After incubation at 23° C. for 2 h, the solutions were filtered using a membrane harvester using multiple washing of the membranes (3×). The filter disks where counted in scintillation cocktail affording the amount of displacement of tritiated ZM by the competitive binding compositions of this invention. Greater than a 5 point curve was used to generate IC50's and the number of experiments (n) is indicated in the column marked in Table 1 below.
# T1 sequence (K9IW67 1-409): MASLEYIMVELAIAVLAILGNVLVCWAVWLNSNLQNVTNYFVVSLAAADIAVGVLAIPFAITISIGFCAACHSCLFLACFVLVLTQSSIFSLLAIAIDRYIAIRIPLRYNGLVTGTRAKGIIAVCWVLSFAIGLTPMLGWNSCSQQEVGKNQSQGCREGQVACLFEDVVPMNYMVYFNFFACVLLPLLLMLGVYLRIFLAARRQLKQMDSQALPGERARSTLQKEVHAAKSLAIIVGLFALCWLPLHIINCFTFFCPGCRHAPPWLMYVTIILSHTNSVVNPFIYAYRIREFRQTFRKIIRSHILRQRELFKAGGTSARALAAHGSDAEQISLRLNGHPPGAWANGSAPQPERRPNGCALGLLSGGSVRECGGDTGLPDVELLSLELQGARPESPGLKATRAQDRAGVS
row,SMILES,Ki [nM]
1,Nc1nc(C#CCOc2ccccc2Cc2ccccc2)nc2c1ncn2[C@@H]1O[C@H](CO)[C@@H](O)[C@H]1O [Compound 14],100 to 1000
2,"Nc1nc(C#CCOc2ccc(-c3ccccc3)cc2)nc2c1ncn2[C@@H]1O[C@H](CO)[C@@H](O)[C@H]1O [Compound 13, (4S,2R,3R,5R)-2-{6-amino-2-[3-(4-phenylphenoxy)prop-1-ynyl]purin-9-yl}-5-(hydroxymethyl)oxolane-3,4-diol]",1000 to 10000
3,"N#Cc1ccc(OCC#Cc2nc(N)c3ncn([C@@H]4O[C@H](CO)[C@@H](O)[C@H]4O)c3n2)cc1 [Compound 12, 4-(3-{9-[(4S,2R,3R,5R)-3,4-dihydroxy-5-(hydroxymethyl)oxolan-2-yl]-6-aminopurin-2-yl}prop-2-ynyloxy)benzenecarbonitrile]",100 to 1000
4,"Nc1nc(C#CCOc2ccccc2)nc2c1ncn2[C@@H]1O[C@H](CO)[C@@H](O)[C@H]1O [Compound 11, (4S,2R,3R,5R)-2-[6-amino-2-(3-phenoxyprop-1-ynyl)purin-9-yl]-5-(hydroxymethyl)oxolane-3,4-diol]",10 to 100

# Next, values leading:
row,Ki [nM],SMILES
1,10 to 100,"Nc1nc(C#CCOc2cccc3c2OCO3)nc2c1ncn2[C@@H]1O[C@H](CO)[C@@H](O)[C@H]1O [Compound 15, 2-[2-(3-(2H-benzo[2,3-d]1,3-dioxolen-4-yloxy)prop-1-ynyl)-6-aminopurin-9-yl](4S,2R,3R,5R)-5-(hydroxymethyl)oxolane-3,4-diol]"
2,1000 to 10000,"CC(C)(C)c1cc(OCC#Cc2nc(N)c3ncn([C@@H]4O[C@H](CO)[C@@H](O)[C@H]4O)c3n2)cc(C(C)(C)C)c1 [Compound 16, (4S,2R,3R,5R)-2-(6-amino-2-{3-[3,5-bis(tert-butyl)phenoxy]prop-1-ynyl}purin-9-yl)-5-(hydroxymethyl)oxolane-3,4-diol]"
3,100 to 1000,"Nc1nc(C#CCOc2ccccc2-c2ccccc2)nc2c1ncn2[C@@H]1O[C@H](CO)[C@@H](O)[C@H]1O [Compound 10, (4S,2R,3R,5R)-2-{6-amino-2-[3-(2-phenylphenoxy)prop-1-ynyl]purin-9-yl}-5-(hydroxymethyl)oxolane-3,4-diol]"
